Experimental findings from US12692254B2, “Benzimidazole inhibitors of PAD enzymes” (BRISTOL-MYERS SQUIBB COMPANY, priority 2018, dated 2026) are described below.

The assay deals with human PAD4 (hPAD4) (Homo sapiens, UniProt Q9UM07). Nature of the assay: RFMS human PAD4 functional assay (rapid-fire mass spectrum). The assay is classed as biochemical. The conditions noted are these: 5 nM hPAD4 enzyme, 250 μM BAEE, 50 μM Calcium; 30 min preincubation, 90 min reaction at 37° C. The method in brief: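 PAD4 (10 nM) preincubated 30 min with compound (top final 50 μM), then BAEE substrate added in pH 7.5 HEPES buffer with DTT, 50 μM calcium, TPEN; 90 min at 37° C. After TCA quench, citrulline derivatized with phenyl glyoxal (4 mM final, 30 min, 37° C) and quantified by RapidFire MS against internal standard.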
Chain of human PAD4 (hPAD4) (Q9UM07 whole entry): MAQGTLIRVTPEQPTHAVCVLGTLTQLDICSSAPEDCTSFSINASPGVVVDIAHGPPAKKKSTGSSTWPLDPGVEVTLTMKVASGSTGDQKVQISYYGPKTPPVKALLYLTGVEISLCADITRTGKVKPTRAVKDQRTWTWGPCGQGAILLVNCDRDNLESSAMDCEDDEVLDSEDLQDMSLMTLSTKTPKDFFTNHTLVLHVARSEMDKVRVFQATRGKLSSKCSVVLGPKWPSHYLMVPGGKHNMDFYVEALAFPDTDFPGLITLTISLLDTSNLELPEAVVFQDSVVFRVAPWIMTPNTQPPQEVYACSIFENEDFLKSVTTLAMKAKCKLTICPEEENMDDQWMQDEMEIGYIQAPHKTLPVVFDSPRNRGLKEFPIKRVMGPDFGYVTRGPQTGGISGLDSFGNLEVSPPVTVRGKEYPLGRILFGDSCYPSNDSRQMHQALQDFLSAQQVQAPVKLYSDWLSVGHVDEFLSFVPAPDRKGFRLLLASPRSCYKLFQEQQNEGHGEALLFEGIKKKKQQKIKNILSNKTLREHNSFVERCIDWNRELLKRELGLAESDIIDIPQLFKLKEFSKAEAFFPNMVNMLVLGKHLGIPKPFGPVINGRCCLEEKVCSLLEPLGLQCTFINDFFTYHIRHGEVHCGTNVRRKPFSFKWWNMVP

With `COc1cccc(-n2cc(Cn3c(-c4cc5ccccc5n4CC4CC4)nc4cc(C(=O)N5CC6CCC5[C@@H]6N)cc(OC)c43)cn2)n1` (stereo partly drawn) [Example 378, (7R)-2-{2-[1-(cyclopropylmethyl)-1H-indol-2-yl]-7-methoxy-1-{[1-(6-methoxypyridin-2-yl)-1H-pyrazol-4-yl]methyl}-1H-1,3-benzodiazole-5-carbonyl}-2-azabicyclo[2.2.1]heptan-7-amine], the 50% inhibitory concentration (IC50) turned out to be 37 nM.

Regarding `COc1cc(C(=O)N2C[C@H]3CC[C@@H]2[C@@H]3N)cc2nc(-c3cc4cccnc4n3CC3CC3)n(CC3CN(c4ccnc(C#N)c4)C3)c12` [Example 31, 4-[3-({5-[(1R,4R,7R)-7-amino-2-azabicyclo[2.2.1]heptane-2-carbonyl]-2-[1-(cyclopropylmethyl)-1H-pyrrolo[2,3-b]pyridin-2-yl]-7-methoxy-1H-1,3-benzodiazol-1-yl}methyl)azetidin-1-yl]pyridine-2-carbonitrile], the IC50 was determined as 85 nM.

For `COc1cc(C(=O)N2C[C@H](N)CC[C@@H]2C)cc2nc(-c3cc4cccnc4n3CC3CC3)n(CC3CN(C(=O)c4ccccc4)C3)c12` [Example 470, (3R,6S)-1-{1-[(1-benozylazetidin-3-yl)methyl]-2-[1-(cyclopropylmethyl)-1H-pyrrolo[2,3-b]pyridin-2-yl]-7-methoxy-1H-1,3-benzodiazole-5-carbonyl}-6-methylpiperidin-3-amine], the IC50 was found to be 177 nM.

Regarding `COc1cc(C(=O)N2C[C@H]3CC[C@@H]2[C@@H]3N)cc2nc(-c3cc4ccccc4n3CC3CC3)n(Cc3ccon3)c12` [Example 268, (1R,4R,7R)-2-{2-[1-(cyclopropylmethyl)-1H-indol-2-yl]-7-methoxy-1-[(1,2-oxazol-3-yl)methyl]-1H-1,3-benzodiazole-5-carbonyl}-2-azabicyclo[2.2.1]heptan-7-amine], the half-maximal inhibitory concentration (IC50) turned out to be 114 nM.

Regarding `CCn1cc(Cn2c(-c3cc4ccccc4n3CC3CC3)nc3cc(C(=O)N4C[C@H](N)C[C@@H](F)C4)cc(OC)c32)cn1` [Example 487, (3R,5R)-1-{2-[1-(cyclopropylmethyl)-1H-indol-2-yl]-1-[(1-ethyl-1H-pyrazol-4-yl)methyl]-7-methoxy-1H-1,3-benzodiazole-5-carbonyl}-5-fluoropiperidin-3-amine], the half-maximal inhibitory concentration (IC50) was 46 nM.

On to `COc1cc(C(=O)N2CC3CCC2[C@@H]3N)cc2nc(-c3cc4ccccc4n3CC3CC3)n(C[C@H]3CCN(c4cncc(C#N)c4)C3)c12` (stereo partly drawn) [Example 225, 5-[(3S)-3-({5-[(1R,4R,7R)-7-amino-2-azabicyclo[2.2.1]heptane-2-carbonyl]-2-[1-(cyclopropylmethyl)-1H-indo1-2-yl]-7-methoxy-1H-1,3-benzodiazol-1-yl}methyl)pyrrolidin-1-yl]pyridine-3-carbonitrile], for which the concentration for half-maximal inhibition (IC50) came to 26 nM.

With `COc1cc(C(=O)N2C[C@H]3CC[C@@H]2[C@@H]3N)cc2nc(-c3cc4cccnc4n3CC3CC3)n(CC3CN(c4ccccc4)C3)c12` [Example 50, (1R,4R,7R)-2-{2-[1-(cyclopropylmethyl)-1H-pyrrolo[2,3-b]pyridin-2-yl]-7-methoxy-1-[(1-phenylazetidin-3-yl)methyl]-1H-1,3-benzodiazole-5-carbonyl}-2-azabicyclo[2.2.1]heptan-7-amine], the 50% inhibitory concentration (IC50) was 141 nM.

Take `COc1cc(C(=O)N2C[C@H]3CC[C@@H]2[C@@H]3N)cc2nc(-c3cc4cccnc4n3CC3CC3)n(CC3CN(c4cncc(C)n4)C3)c12` [Example 63, (1R,4R,7R)-2-{2-[1-(cyclopropylmethyl)-1H-pyrrolo[2,3-b]pyridin-2-yl]-7-methoxy-1-{[1-(6-methylpyrazin-2-yl)azetidin-3-yl]methyl}-1H-1,3-benzodiazole-5-carbonyl}-2-azabicyclo[2.2.1]heptan-7-amine]: the IC50 stood at 199 nM.

On to `COc1cc(C(=O)N2CC3CCC2[C@@H]3N)cc2nc(-c3cc4ccccc4n3CC3CC3)n(CC3CCS(=O)(=O)C3)c12` (stereo partly drawn) [Example 290, ((7R)-7-amino-2-azabicyclo[2.2.1]heptan-2-yl)(2-(1-(cyclopropylmethyl)-1H-indol-2-yl)-1-((1,1-dioxidotetrahydrothiophen-3-yl)methyl)-7-methoxy-1H-benzo[d]imidazol-5-yl)methanone], for which the IC50 amounted to 1590 nM.

Consider `COc1cc(C(=O)N2C[C@H](N)C[C@@H](F)C2)cc2nc(-c3cc4ccccc4n3CC3CC3)n(Cc3cnn(C)c3C)c12` [Example 506, (3R,5R)-1-{2-[1-(cyclopropylmethyl)-1H-indol-2-yl]-1-[(1,5-dimethyl-1H-pyrazol-4-yl)methyl]-7-methoxy-1H-1,3-benzodiazole-5-carbonyl}-5-fluoropiperidin-3-amine], for which the IC50 is 225 nM.

As for `CCOC(=O)N1CC(Cn2c(-c3cc4cccnc4n3CC3CC3)nc3cc(C(=O)N4C[C@H]5CC[C@@H]4[C@@H]5N)cc(OC)c32)C1` [Example 130, ethyl 3-({5-[(1R,4R,7R)-7-amino-2-azabicyclo[2.2.1]heptane-2-carbonyl]-2-[1-(cyclopropylmethyl)-1H-pyrrolo[2,3-b]pyridin-2-yl]-7-methoxy-1H-1,3-benzodiazol-1-yl}methyl)azetidine-1-carboxylate], the IC50 was determined as 128 nM.

`COc1cc(C(=O)N2C[C@H](N)C[C@@H](F)C2)cc2nc(-c3cc4ccccc4n3CC3CC3)n(Cc3ccnn3C)c12` [Example 277, (3R,5R)-1-{2-[1-(cyclopropylmethyl)-1H-indol-2-yl]-7-methoxy-1-[(1-methyl-1H-pyrazol-5-yl)methyl]-1H-1,3-benzodiazole-5-carbonyl}-5-fluoropiperidin-3-amine]: the IC50 amounted to 319 nM.

`COc1cc(C(=O)N2C[C@H]3CC[C@@H]2[C@@H]3N)cc2nc(-c3cc4cccnc4n3CC3CC3)n(C3CNC3)c12` [Example 307, (1R,4R,7R)-2-[1-(azetidin-3-yl)-2-[1-(cyclopropylmethyl)-1H-pyrrolo[2,3-b]pyridin-2-yl]-7-methoxy-1H-1,3-benzodiazole-5-carbonyl]-2-azabicyclo[2.2.1]heptan-7-amine]: the 50% inhibitory concentration (IC50) came to 297 nM.

On to “5-(4-((5-((1R,4R,7R)-7-amino-2-azabicyclo[2.2.1]heptane-2-carbonyl)-2-(1-(cyclopropylmethyl)-1H-pyrrolo[2,3-b]pyridin-2-yl)-7-methoxy-1H-benzo[d]imidazol-1-yl)methyl)piperdine-1-carbonyl)pyrimidine-2-carbonitrile [Example 194]”, for which the IC50 came out at 74 nM.

Regarding `COc1cc(C(=O)N2C[C@H]3CC[C@@H]2[C@@H]3N)cc2nc(-c3cc4cccnc4n3CC3CC3)n(CC3CCN(c4ccncn4)CC3)c12` [Example 217, (1R,4R,7R)-2-{2-[1-(cyclopropylmethyl)-1H-pyrrolo[2,3-b]pyridin-2-yl]-7-methoxy-1-{[1-(pyrimidin-4-yl)piperidin-4-yl]methyl}-1H-1,3-benzodiazole-5-carbonyl}-2-azabicyclo[2.2.1]heptan-7-amine], the 50% inhibitory concentration (IC50) amounted to 56 nM.

With `CCCC(=O)N1CC(Cn2c(-c3cc4cccnc4n3CC3CC3)nc3cc(C(=O)N4C[C@H]5CC[C@@H]4[C@@H]5N)cc(OC)c32)C1` [Example 118, 1-[3-({5-[(1R,4R,7R)-7-amino-2-azabicyclo[2.2.1]heptane-2-carbonyl]-2-[1-(cyclopropylmethyl)-1H-pyrrolo[2,3-b]pyridin-2-yl]-7-methoxy-1H-1,3-benzodiazol-1-yl}methyl)azetidin-1-yl]butan-1-one], the IC50 turned out to be 68 nM.

Turning to `COc1cc(C(=O)N2CC3CCC2[C@@H]3N)cc2nc(-c3cc4cccnc4n3CC3CC3)n(Cc3cnn(-c4cncc(C#N)c4)c3)c12` (stereo partly drawn) [Example 346, 5-[4-({5-[(7R)-7-amino-2-azabicyclo[2.2.1]heptane-2-carbonyl]-2-[1-(cyclopropylmethyl)-1H-pyrrolo[2,3-b]pyridin-2-yl]-7-methoxy-1H-1,3-benzodiazol-1-yl}methyl)-1H-pyrazol-1-yl]pyridine-3-carbonitrile], the IC50 was found to be 61 nM.

Regarding `COc1cc(C(=O)N2C[C@H]3CC[C@@H]2[C@@H]3N)cc2nc(-c3cc4cccnc4n3CC3CC3)n(CC3CN(c4cncnc4C#N)C3)c12` [Example 46, 5-[3-({5-[(1R,4R,7R)-7-amino-2-azabicyclo[2.2.1]heptane-2-carbonyl]-2-[1-(cyclopropylmethyl)-1H-pyrrolo[2,3-b]pyridin-2-yl]-7-methoxy-1H-1,3-benzodiazol-1-yl}methyl)azetidin-1-yl]pyrimidine-4-carbonitrile], the IC50 stood at 118 nM.

On to `COc1cc(C(=O)N2C[C@H]3CC[C@@H]2[C@@H]3N)cc2nc(-c3cc4cccnc4n3CC3CC3)n(C[C@H]3CCN(c4cncc(C#N)n4)C3)c12` [Example 203, 6-[(3S)-3-({5-[(1R,4R,7R)-7-amino-2-azabicyclo[2.2.1]heptane-2-carbonyl]-2-[1-(cyclopropylmethyl)-1H-pyrrolo[2,3-b]pyridin-2-yl]-7-methoxy-1H-1,3-benzodiazol-1-yl}methyl)pyrrolidin-1-yl]pyrazine-2-carbonitrile], for which the half-inhibitory concentration (IC50) was 23 nM.

As to `COc1cc(-n2cc(Cn3c(-c4cc5ccccc5n4CC4CC4)nc4cc(C(=O)N5CC6CCC5[C@@H]6N)cc(OC)c43)cn2)ccn1` (stereo partly drawn) [Example 366, (7R)-2-{2-[1-(cyclopropylmethyl)-1H-indol-2-yl]-7-methoxy-1-{[1-(2-methoxypyridin-4-yl)-1H-pyrazol-4-yl]methyl}-1H-1,3-benzodiazole-5-carbonyl}-2-azabicyclo[2.2.1]heptan-7-amine], the concentration for half-maximal inhibition (IC50) worked out at 28 nM.

Take `COc1cc(C(=O)N2CC3CCC2[C@@H]3N)cc2nc(-c3cc4cccnc4n3CC3CC3)n(CC3CN(C(=O)c4ccc(Cl)cc4)C3)c12` (stereo partly drawn) [Example 429, (7R)-2-(1-{[1-(4-chlorobenzoyl)azetidin-3-yl]methyl}-2-[1-(cyclopropylmethyl)-1H-pyrrolo[2,3-b]pyridin-2-yl]-7-methoxy-1H-1,3-benzodiazole-5-carbonyl)-2-azabicyclo[2.2.1]heptan-7-amine]: the IC50 was 29 nM.

By IC50 is commonly meant the concentration at which inhibition is half-maximal.
